{
  "source": "patent US20070238146A1",
  "about": "“Kinetic metabolic assay for antifungal susceptibility testing” (priority 2006, published 2007)",
  "type_in_all_cases": "cell-based, Candida albicans",
  "key": {"[1]": {"test_system": "planktonic C. albicans cells", "experiment": "kinetic metabolic assay (KMA, alamarBlue) of planktonic cells after 1 h AmB treatment", "description": "Planktonic cultures. Cultures were grown aerobically in 250-ml Erlenmeyer flasks containing 100 ml growth medium. The flasks were placed in a shaker incubator at 37° C. and 160 rpm for the desired period of growth. C. albicans grew as budding yeast under these conditions. Exponential phase cells were harvested after a 5-h growth period and stationary-phase cells at 96 h.\nAmB treatment. AmB was from Biosource International Inc. (Fungizone with 0.00205% sodium deoxycholate solubilizing agent). A standard broth dilution method was used to assess the AmB MlC of CA-1, with ATCC 24433 used as a reference strain (32). AmB treatment of planktonic cells and shear-removed biofilm was preformed in 1.5-ml centrifuge tubes. The tubes contained a total working volume of 450 μl. AmB dissolved in 200 μl of 0.1 M PBS (pH 7.0), and cells resuspended in 250 μl of PBS adjusted to an optical density of 0.05 (A660) were added to the 1.5-ml tube. After more than 10 preliminary experiments, the time between recovery of the shear-removed biofilm in the petri dish and exposure to AmB was reduced to approximately 5 min. The positive controls had no AmB, and the negative controls had no cells. For AmB treatment of the basal blastospore population, each sample consisted of a 0.5-cm long section of tubing cut from the TF. Each tubing sample was positioned in the 96-well plate (Corning Inc.; Costar 3370) such that its outer wall snugly fit along the wall of the well in the 96-well plate. This enabled recording of absorbance data for the metabolic indicator in real time without perturbing the well contents. The 0.5-cm tubing samples were randomly placed in the 96-well plate in order to randomize the distribution between treated samples and untreated controls. Solution (225 μl) containing AmB in 0.1 M PBS was added to wells to completely submerge the 0.5-cm tubing during the AmB treatment phase. Untreated samples were the positive controls. Three independent TF experiments were run, generating 24 samples per AmB concentration and 61 untreated controls for the basal blastospores. Sterile tubing was used as a negative control. In every experiment, a minimum of four negative controls were used. The AmB treatment period was 1 h across all cell populations. During AmB exposure, the 1.5-m1 tubes (containing either the planktonic or shear-removed populations) and 96 -well plates (containing the basal blastospores) were placed in a shaker incubator at 37° C. and 150 rpm. […]\nKinetic curves. Kinetic data of the reduction of metabolic indicators and turbidimetric changes were recorded for both AmB treated and untreated samples. […] The kinetic assay in the 96 well format was run for 24 h at 37° C. with continuous shaking in a Synergy-HT plate reader (Biotek Inc.). […]"}, "[2]": {"test_system": "planktonic C. albicans cells", "experiment": "CFU assay of planktonic cells after AmB treatment", "details": "exponential phase planktonic cells", "description": "CFU assay. CFU were estimated for both AmB treated and untreated planktonic sample. 100 μl planktonic C. albicans cells in PBS were serially diluted in 2 ml cuvettes (catalog no. BTCUV, Biotrace Inc.). The serial dilution was 10-fold across each cuvette. The required number of serial dilutions per sample were judged based on trial and error. A volume of 100 μl from each serially diluted cuvette was spread as a separate lane on an agar plate. […] Plates were incubated at 37° C. for 24 hours. CFU were estimated from dilutions whose numbers fell in the range of 10 to 100 colonies per lane. The appropriate dilution factor was multiplied to estimate the final viable cell concentration for every sample.\nAmB treatment. AmB was from Biosource International Inc. (Fungizone with 0.00205% sodium deoxycholate solubilizing agent). A standard broth dilution method was used to assess the AmB MlC of CA-1, with ATCC 24433 used as a reference strain (32). AmB treatment of planktonic cells and shear-removed biofilm was preformed in 1.5-ml centrifuge tubes. The tubes contained a total working volume of 450 μl. […] This enabled recording of absorbance data for the metabolic indicator in real time without perturbing the well contents. […]\n(ii) Calculation of percent viability. Viability in terms of CFU was calculated by using the kinetic parameters estimated for each sample and the corresponding calibrations. […]"}, "[3]": {"test_system": "C. albicans biofilm basal blastospores", "experiment": "KMA for in situ biofilm susceptibility testing (alamarBlue, modified medium, t-threshold)", "description": "Biofilm cultures. Biofilms were grown in a tubular flow cell (TF). Silicone tubing (Cole-Panmer; catalog no. EW-95802-08) with an inner diameter of 4.78 mm, an outer diameter of 6.35 mm, a wall of 0.79 mm, and a length of 60 cm constituted the biofilm-growing region of the TF. The source of growth medium for the TF was a 2-liter Erlenineyer flask. A bubble trap was placed between the Erlenmeyer flask and the TF to prevent passage of air bubbles during biofilm growth. Flow rates of 1.17 ml/min (shear rate, 109.5 s^−1) were maintained by a peristaltic pump coupled at the effluent end of the TF. The residence time for the volume of liquid contained in the tubular reactor portion of the flow system (20-cm length of tubing) was 3 min. This condition ensured that the contribution to the cell population in the TF from cells in the planktonic mode of growth (doubling time, approximately 80 min) was negligible. After sterilization by autoclaving, the entire setup was placed horizontally on a grilled shelf in an incubator at 37° C. The TF was filled with growth medium before being inoculated with cells. The inoculum was prepared from a 24-h planktonic culture at a concentration of 10^8 cells/ml in 0.1 M phosphate-buffered saline (PBS, pH 7) buffer. It was fed into the TF from the effluent end by reversing the direction of flow. Flow was then discontinued for 1 h. After the 1 -h inoculation period, flow was resumed for 36 h. At the end of this culture period, the section of tubing in which the biofilm grew was clamped at both ends and removed by cutting the tubing with a sterile blade. The liquid column was drained into a petri dish by moving the tubing to a vertical position and releasing the clamps. The tubing was then rinsed with PBS buffer equivalent to one tube volume. The fraction of biofilm collected in the petri dish by this procedure is referred to as the shear-removed biofilm. […]\nAmB treatment. […] This enabled recording of absorbance data for the metabolic indicator in real time without perturbing the well contents. […]"}},
  "data": [
    {"molecule": "C[C@@H]1[C@H](O)[C@@H](C)/C=C/C=C/C=C/C=C/C=C/C=C/C=C/[C@H](O[C@@H]2O[C@H](C)[C@@H](O)[C@H](N)[C@@H]2O)C[C@@H]2O[C@](O)(C[C@@H](O)C[C@@H](O)[C@H](O)CC[C@@H](O)C[C@@H](O)CC(=O)O[C@H]1C)C[C@H](O)[C@H]2C(=O)O", "note": "[AmB, amphotericin B]", "values": [
      {"measurement": "AmB concentration beyond which complete killing is achieved", "setting": "[1]; exponential phase planktonic cells, KMA, 1 h AmB treatment", "result": "> 1.77", "unit": "µg/mL"},
      {"measurement": "AmB concentration up to which viability is detected", "setting": "[1]; modified medium, exponential-phase cells, alamarBlue, t-threshold (FIG. 5)", "result": 1.77, "unit": "µg/mL"},
      {"measurement": "AmB concentration up to which cells survive", "setting": "[1]; stationary phase planktonic cells, alamarBlue, t-threshold, 1 h AmB treatment (FIG. 6)", "result": 3.55, "unit": "µg/mL"},
      {"measurement": "AmB concentration up to which viability is detected (detection limit)", "setting": "[1]; unmodified medium, exponential-phase cells, alamarBlue, t-threshold (FIG. 5)", "result": 0.88, "unit": "µg/mL"},
      {"measurement": "AmB concentration beyond which complete killing was observed", "setting": "[2]", "result": "> 1.77", "unit": "µg/mL"},
      {"measurement": "activity of basal blastospores relative to other populations", "setting": "[3]; AmB concentrations greater than or equal to 3.7 μg/ml, versus shear removed biofilm, stationary and exponential phase planktonic cells", "result": "clearly more active than the other three populations"},
      {"measurement": "AmB concentration up to which metabolic activity was exhibited", "setting": "[3]; basal blastospore subpopulation in situ, highest tested concentration, 1 h AmB treatment", "result": 28.26, "unit": "µg/mL"},
      {"measurement": "loss of metabolic activity of basal blastospores relative to other samples", "setting": "[3]; lower AmB concentrations (<1.77 μg/ml)", "result": "greater loss of metabolic activity than the other samples"}
    ]}
  ]
}
